The values below come from patent US9108944B2, “Androgen receptor modulators and uses thereof” (ARAGON PHARMACEUTICALS, INC., priority 2010, dated 2015).

pIC50: −log10 of the molar value. Where only a bound is given, the exact number is not on record here.

A word on the pIC50: it is −log10 of the IC50, conventionally taken in molar units. Higher therefore signals a low IC50.

Assay [1] addresses T1, AR-VP16 (Homo sapiens, UniProt P10275).
T1 sequence (P10275 560-920 limits assumed): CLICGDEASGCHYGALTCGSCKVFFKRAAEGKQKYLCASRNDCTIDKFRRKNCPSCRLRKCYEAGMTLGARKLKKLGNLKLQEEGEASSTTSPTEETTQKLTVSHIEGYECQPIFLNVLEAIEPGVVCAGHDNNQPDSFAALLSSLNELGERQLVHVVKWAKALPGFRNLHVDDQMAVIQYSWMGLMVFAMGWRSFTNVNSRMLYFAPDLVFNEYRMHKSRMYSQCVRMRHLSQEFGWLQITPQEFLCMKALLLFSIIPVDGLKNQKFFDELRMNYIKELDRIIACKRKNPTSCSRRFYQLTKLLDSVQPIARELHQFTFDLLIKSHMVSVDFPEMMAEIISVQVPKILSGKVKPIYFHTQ
Nature of the assay: AR-VP16 DNA Binding Assay, antagonist mode (HepG2 cells, 0.1 nM R1881). The format is cell-based. The essentials: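 Transfected HepG2 cells expressing AR-VP16 received serially diluted compound in charcoal-stripped-serum RPMI the day after transfection, with 0.1 nM R1881 (final) added only for antagonist testing. After 48 h, cells were lysed for measurement.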

Assay [2] deals with T1, AR-VP16. Put plainly: AR-VP16 DNA Binding Assay, agonist mode (HepG2 cells). The format is cell-based. Conditions: Emax >20x DMSO control = agonist.

In turn, `CC(C)N1CCC(Oc2ccc(N3C(=S)N(c4cnc(C#N)c(C(F)(F)F)c4)C(=O)C34CCC4)cc2)CC1` [Compound 220, 5-(5-(4-((1-Isopropylpiperidin-4-yl)oxy)phenyl)-8-oxo-6-thioxo-5,7-diazaspiro[3.4]octan-7-yl)-3-(trifluoromethyl)picolinonitrile] had a pIC50 in assay [1] of over 6.00. Further, the “ARVP16 DNA Binding Assay (Agonist mode): Agonist?” value (“ARVP16 DNA Binding Assay” below) in assay [2] was “No (Agonist defined as a compound whose Emax in the ARVP16 DNA Binding Assay (Agonist mode) is >20x DMSO control)”.

In assay [1], `CCOC(=O)CN1CCC(Oc2ccc(N3C(=S)N(c4cnc(C#N)c(C(F)(F)F)c4)C(=O)C34CCC4)cc2)CC1` [Compound 221, Ethyl 2-(4-(4-(7-(6-cyano-5-(trifluoromethyl)pyridin-3-yl)-8-oxo-6-thioxo-5,7-diazaspiro[3.4]octan-5-yl)phenoxy)piperidin-1-yl)acetate] showed a pIC50 of under 6.00. Further, in assay [2], the “ARVP16 DNA Binding Assay” value is reported as “No (Agonist defined as a compound whose Emax in the ARVP16 DNA Binding Assay (Agonist mode) is >20x DMSO control)”.

In assay [1], `N#Cc1ncc(N2C(=O)C3(CCC3)N(c3ccc(OC4CCN(C(N)=O)CC4)cc3)C2=S)cc1C(F)(F)F` [Compound 222, 4-(4-(7-(6-Cyano-5-(trifluoromethyl)pyridin-3-yl)-8-oxo-6-thioxo-5,7-diazaspiro[3.4]octan-5-yl)phenoxy)piperidine-1-carboxamide] gave a pIC50 of over 6.00. In addition, in assay [2], the “ARVP16 DNA Binding Assay” value is recorded as “Yes (Agonist defined as a compound whose Emax in the ARVP16 DNA Binding Assay (Agonist mode) is >20x DMSO control)”.

`Cc1cc(N2C(=O)C3(CCC3)N(c3ccc(OCCO)cc3)C2=S)cnc1C#N` [Compound 223, 5-(5-(4-(2-Hydroxyethoxy)phenyl)-8-oxo-6-thioxo-5,7-diazaspiro[3.4]octan-7-yl)-3-methylpicolinonitrile] gave a pIC50 in assay [1] of over 6.00. Moreover, the “ARVP16 DNA Binding Assay” value in assay [2] is recorded as “No (Agonist defined as a compound whose Emax in the ARVP16 DNA Binding Assay (Agonist mode) is >20x DMSO control)”.

In assay [1], `N#Cc1ncc(N2C(=O)C3(CCC3)N(c3ccc(C(=O)O)c(F)c3)C2=S)cc1C(F)(F)F` [Compound 224, 4-(7-(6-Cyano-5-(trifluoromethyl)pyridin-3-yl)-8-oxo-6-thioxo-5,7-diazaspiro[3.4]octan-5-yl)-2-fluorobenzoic acid] showed a pIC50 of under 6.00. Further, the “ARVP16 DNA Binding Assay” value in assay [2] was “No (Agonist defined as a compound whose Emax in the ARVP16 DNA Binding Assay (Agonist mode) is >20x DMSO control)”.

In turn, `Cc1cc(N2C(=O)C3(CCC3)N(c3ccc(C(=O)O)c(F)c3)C2=S)cnc1C#N` [Compound 225, 4-(7-(6-Cyano-5-methylpyridin-3-yl)-8-oxo-6-thioxo-5,7-diazaspiro[3.4]octan-5-yl)-2-fluorobenzoic acid] gave a negative logarithm of the IC50 (pIC50) in assay [1] of over 6.00. Also, the “ARVP16 DNA Binding Assay” value in assay [2] is “No (Agonist defined as a compound whose Emax in the ARVP16 DNA Binding Assay (Agonist mode) is >20x DMSO control)”.

On to `N#Cc1ncc(N2C(=O)C3(CCC3)N(c3ccc(F)c(C(=O)O)c3)C2=S)cc1C(F)(F)F` [Compound 226, 5-(7-(6-Cyano-5-(trifluoromethyl)pyridin-3-yl)-8-oxo-6-thioxo-5,7-diazaspiro[3.4]octan-5-yl)-2-fluorobenzoic acid], for which the pIC50 in assay [1] is under 6.00. In addition, the “ARVP16 DNA Binding Assay” value in assay [2] is on record as “No (Agonist defined as a compound whose Emax in the ARVP16 DNA Binding Assay (Agonist mode) is >20x DMSO control)”.

`N#Cc1ncc(N2C(=O)C3(CCC3)N(c3ccc(CCCC(=O)O)cc3)C2=S)cc1C(F)(F)F` [Compound 227, 4-(4-(7-(6-cyano-5-(trifluoromethyl)pyridin-3-yl)-8-oxo-6-thioxo-5,7-diazaspiro[3.4]octan-5-yl)phenyl)butanoic acid] showed a pIC50 in assay [1] of under 6.00. Moreover, the “ARVP16 DNA Binding Assay” value in assay [2] is “No (Agonist defined as a compound whose Emax in the ARVP16 DNA Binding Assay (Agonist mode) is >20x DMSO control)”.

Turning to `N#Cc1ncc(N2C(=O)C3(CCC3)N(c3ccc(OCC(=O)O)c(F)c3)C2=S)cc1C(F)(F)F` [Compound 228, 2-(4-(7-(6-Cyano-5-(trifluoromethyl)pyridin-3-yl)-8-oxo-6-thioxo-5,7-diazaspiro[3.4]octan-5-yl)-2-fluorophenoxy)acetic acid], in assay [1], the negative-log IC50 (pIC50) was under 6.00. For the same molecule, the “ARVP16 DNA Binding Assay” value in assay [2] was “No (Agonist defined as a compound whose Emax in the ARVP16 DNA Binding Assay (Agonist mode) is >20x DMSO control)”.

On to `NC(=O)c1ncc(N2C(=O)C3(CCC3)N(c3ccc(F)c(C(=O)O)c3)C2=S)cc1C(F)(F)F` [Compound 229, 5-(7-(6-Carbamoyl-5-(trifluoromethyl)pyridin-3-yl)-8-oxo-6-thioxo-5,7-diazaspiro[3.4]octan-5-yl)-2-fluorobenzoic acid], for which the pIC50 in assay [1] was over 6.00. Further, in assay [2], the “ARVP16 DNA Binding Assay” value was “No (Agonist defined as a compound whose Emax in the ARVP16 DNA Binding Assay (Agonist mode) is >20x DMSO control)”.

For the molecule `N#Cc1ncc(N2C(=O)C3(CCC3)N(c3ccc(C(N)=O)c(F)c3)C2=S)cc1C(F)(F)F` [Compound 231, 4-(7-(6-Cyano-5-(trifluoromethyl)pyridin-3-yl)-8-oxo-6-thioxo-5,7-diazaspiro[3.4]octan-5-yl)-2-fluorobenzamide], the pIC50 in assay [1] is over 6.00. The “ARVP16 DNA Binding Assay” value in assay [2] is given as “No (Agonist defined as a compound whose Emax in the ARVP16 DNA Binding Assay (Agonist mode) is >20x DMSO control)”.

In the case of `Cc1cc(N2C(=O)C3(CCC3)N(c3ccc(C(N)=O)c(F)c3)C2=S)cnc1C#N` [Compound 232, 4-(7-(6-Cyano-5-methylpyridin-3-yl)-8-oxo-6-thioxo-5,7-diazaspiro[3.4]octan-5-yl)-2-fluorobenzamide], the pIC50 in assay [1] was over 6.00. In assay [2], the “ARVP16 DNA Binding Assay” value is reported as “No (Agonist defined as a compound whose Emax in the ARVP16 DNA Binding Assay (Agonist mode) is >20x DMSO control)”.

The molecule `Cc1cc(N2C(=S)N(c3cnc(C#N)c(C)c3)C(=O)C23CCC3)ccc1C(N)=O` [Compound 233, 4-(7-(6-Cyano-5-methylpyridin-3-yl)-8-oxo-6-thioxo-5,7-diazaspiro[3.4]octan-5-yl)-2-methylbenzamide] had a pIC50 in assay [1] of under 6.00. In assay [2], the “ARVP16 DNA Binding Assay” value was “No (Agonist defined as a compound whose Emax in the ARVP16 DNA Binding Assay (Agonist mode) is >20x DMSO control)”.

`N#Cc1ncc(N2C(=O)C3(CCC3)N(c3ccc(C(=O)NCCN4CCCC4)c(F)c3)C2=S)cc1C(F)(F)F` [Compound 234, 4-(7-(6-Cyano-5-(trifluoromethyl)pyridin-3-yl)-8-oxo-6-thioxo-5,7-diazaspiro[3.4]octan-5-yl)-2-fluoro-N-(2-(pyrrolidin-1-yl)ethyl)benzamide] gave a pIC50 in assay [1] of under 6.00. Besides, the “ARVP16 DNA Binding Assay” value in assay [2] was “No (Agonist defined as a compound whose Emax in the ARVP16 DNA Binding Assay (Agonist mode) is >20x DMSO control)”.

For the molecule `N#Cc1ncc(N2C(=O)C3(CCC3)N(c3ccc(C(=O)NCCc4ccccn4)c(F)c3)C2=S)cc1C(F)(F)F` [Compound 236, 4-(7-(6-Cyano-5-(trifluoromethyl)pyridin-3-yl)-8-oxo-6-thioxo-5,7-diazaspiro[3.4]octan-5-yl)-2-fluoro-N-(2-(pyridin-2-yl)ethyl)benzamide], the pIC50 in assay [1] is over 6.00. Besides, the “ARVP16 DNA Binding Assay” value in assay [2] is reported as “No (Agonist defined as a compound whose Emax in the ARVP16 DNA Binding Assay (Agonist mode) is >20x DMSO control)”.
